Test results published in US20040023264A1, “Method for determining the peptide hormone activities or the steroid hormone activities of a material or substance mixture” (priority 2000, published 2004).

Tests used:
glucocorticoid receptor [1] = target: T1, glucocorticoid receptor (Rattus norvegicus, UniProt P06536); assay: Glucocorticoid activity bioassay, CC1 cells cotransfected with GRE2-TATA-Luc and glucocorticoid receptor expression plasmid; format: cell-based; design: expressed in transfected cells; host or cells: CC1 cells (permanent rat liver cell line), transiently cotransfected with pSTC-rGR and GRE2-TATA-Luc; settings: for corticosteroid (glucocorticoid) activity of corticosterone:BSA derivatives / glucocorticoid activity (luciferase induction): CC1 cells; for corticosteroid (glucocorticoid) activity of corticosterone:BSA derivatives: each 200 nM, various induction times; for glucocorticoid activity (luciferase induction): different concentrations, induction time 24 h
T1 sequence (P06536 1-795): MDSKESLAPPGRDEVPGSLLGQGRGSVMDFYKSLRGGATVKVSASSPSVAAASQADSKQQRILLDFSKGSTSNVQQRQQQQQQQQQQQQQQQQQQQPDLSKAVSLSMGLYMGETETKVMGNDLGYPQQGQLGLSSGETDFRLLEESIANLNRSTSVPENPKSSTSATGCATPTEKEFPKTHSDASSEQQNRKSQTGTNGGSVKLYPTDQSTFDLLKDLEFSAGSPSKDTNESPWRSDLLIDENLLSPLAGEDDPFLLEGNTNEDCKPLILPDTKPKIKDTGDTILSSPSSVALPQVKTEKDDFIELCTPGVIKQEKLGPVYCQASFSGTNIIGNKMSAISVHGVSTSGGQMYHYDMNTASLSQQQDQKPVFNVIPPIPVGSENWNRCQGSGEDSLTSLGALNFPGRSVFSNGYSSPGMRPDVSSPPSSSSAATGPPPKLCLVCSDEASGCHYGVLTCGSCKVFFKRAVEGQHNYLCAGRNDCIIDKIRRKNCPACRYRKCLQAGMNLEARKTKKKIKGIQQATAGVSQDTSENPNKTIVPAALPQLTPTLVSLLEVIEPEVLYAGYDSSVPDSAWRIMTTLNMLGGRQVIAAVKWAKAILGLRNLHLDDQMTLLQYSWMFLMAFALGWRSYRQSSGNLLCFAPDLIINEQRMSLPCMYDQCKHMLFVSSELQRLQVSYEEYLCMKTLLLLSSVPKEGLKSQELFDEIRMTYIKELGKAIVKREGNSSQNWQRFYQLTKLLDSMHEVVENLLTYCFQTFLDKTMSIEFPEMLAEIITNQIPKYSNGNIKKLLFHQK
Protocol: These cell lines contain endogenous glucocorticoid receptors. Here, steroid concentration—in this case corticosterone concentration—determines the extent of glucocorticoid activity. […] Induction time: 24 h (see also example 12).
(§1) Thus, the following examples always concern transit ntly cotransfected CC1or MH 3924 cell.

glucocorticoid receptor [2] = target: T1, glucocorticoid receptor
Protocol: These cell lines contain endogenous glucocorticoid receptors. Here, steroid concentration—in this case corticosterone concentration—determines the extent of glucocorticoid activity. […]
as §1
Determination was carried out as in example 7, however, with MH 3924 cells.

androgen receptors (AR) = assay: Androgen induced luciferase activity in transfected human genital skin fibroblasts (GSF); format: cell-based; settings: mibolerone 2 nM, 24 h incubation; three Luc constructs; strength depends on origin of fibroblasts
From the text: FIG. 1: Androgen induced luciferase activity in human genital skin fibroblasts (GSF) in culture transfected with three different luciferase gen constructs of different androgen sensitivity (“Lu ”): PRE2-Tk-Luc, MMTV-Luc, GRE2-TATA-Luc
The only steroid hormone receptors present in GSF are androgen receptors (AR). Mibolerone, which is used in this experiment, is a synthetic androgen with anabolic effectiveness. […] Obviously, GE2-TATA-Luc is the most sensitive reporter gene construct of the ones used here (for comparison, see also example 10 with a MMTV promotor reporter gene construct as well as FIG. 10).

androgen receptor = androgen receptor (Homo sapiens, UniProt P10275); settings: HeLa cells, induction time 24 h
From the text: Transfection method in this experiment was the DOTAP method (Boehringer, Mannheim, Germany).
This androgen receptor free cell line was transiently cotransfected with GRE2-TATA-Luc and a recombinant androgen receptor expression plasmid.

glucocorticoid receptor [3] = target: T1, glucocorticoid receptor; settings: CC1 cells

androgen receptor, sequence (P10275 whole entry): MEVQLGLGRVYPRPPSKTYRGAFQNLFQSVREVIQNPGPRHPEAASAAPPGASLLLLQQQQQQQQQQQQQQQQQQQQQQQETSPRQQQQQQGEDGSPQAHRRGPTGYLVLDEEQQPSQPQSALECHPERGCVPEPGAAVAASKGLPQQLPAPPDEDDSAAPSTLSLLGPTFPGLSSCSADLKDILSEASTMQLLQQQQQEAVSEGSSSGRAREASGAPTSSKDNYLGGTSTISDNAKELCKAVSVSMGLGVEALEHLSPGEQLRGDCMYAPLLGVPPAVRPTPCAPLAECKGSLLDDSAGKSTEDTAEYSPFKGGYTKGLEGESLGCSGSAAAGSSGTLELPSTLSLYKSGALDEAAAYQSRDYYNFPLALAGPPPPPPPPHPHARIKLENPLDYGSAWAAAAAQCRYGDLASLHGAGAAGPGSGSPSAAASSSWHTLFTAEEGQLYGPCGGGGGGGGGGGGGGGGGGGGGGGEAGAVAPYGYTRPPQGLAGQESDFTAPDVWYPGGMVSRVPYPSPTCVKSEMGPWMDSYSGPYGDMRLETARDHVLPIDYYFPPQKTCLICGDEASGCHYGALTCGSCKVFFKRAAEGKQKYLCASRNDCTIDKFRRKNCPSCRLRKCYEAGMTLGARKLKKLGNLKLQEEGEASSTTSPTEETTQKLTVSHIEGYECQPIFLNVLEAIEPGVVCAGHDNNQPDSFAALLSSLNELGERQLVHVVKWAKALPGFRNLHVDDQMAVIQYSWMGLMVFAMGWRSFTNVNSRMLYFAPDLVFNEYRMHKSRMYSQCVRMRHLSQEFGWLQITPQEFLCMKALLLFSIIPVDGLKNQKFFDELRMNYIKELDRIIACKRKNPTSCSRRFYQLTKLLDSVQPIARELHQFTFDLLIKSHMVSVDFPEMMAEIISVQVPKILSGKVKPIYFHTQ

## 3-CMO-corticosterone:BSA [3:BSA]
Glucocorticoid receptor [1]
  corticosteroid (glucocorticoid) activity of corticosterone:BSA derivatives: weak

## 21-hemisuccinat-corticosterone:BSA
Glucocorticoid receptor [2]; MH 3924 cells, short term induction of 10 to 30 min (FIG. 4a)
  concentration at which luciferase induction is easily measurable: ≤ 50 nM
Glucocorticoid receptor [1]
  corticosteroid (glucocorticoid) activity of corticosterone:BSA derivatives: strong
Glucocorticoid receptor [1]; cotransfected CC1 cells
  luciferase induction by corticosterone derivative bound to BSA (glucocorticoid activity): luciferase is induced

## C[C@@H]1CC2=CC(=O)CC[C@@H]2[C@H]2CC[C@@]3(C)[C@@H](CC[C@]3(C)O)[C@@H]21 [Mibolerone]
Androgen receptors (AR)
  luciferase activity induced by androgen: luciferase activity of varying strength

## C[C@]1(O)CC[C@H]2[C@@H]3CCC4=CC(=O)CCC4=C3C=C[C@@]21C [R1881, methyltrienolone]
Androgen receptor
  concentration at which hormone activity (anabolic potency) can already be detected: 10 pM

## CC#C[C@]1(O)CC[C@H]2[C@@H]3CCC4=CC(=O)CCC4=C3[C@@H](c3ccc(N(C)C)cc3)C[C@@]21C [RU 38486, mifepristone]
Glucocorticoid receptor [3]
  blocking of luciferase inducing effect of corticosterone and 21-hemisuccinat-corticosterone:BSA (glucocorticoid antagonism): extensively blocked

## C[C@]12CCC(=O)C=C1CC[C@@H]1[C@@H]2CC[C@@]2(C)[C@H]1CC[C@]2(O)C(=O)CO [cortexolone, 17α-, 21-dihydroxy-progesterone]
Glucocorticoid receptor [1]
  glucocorticoid activity (luciferase induction): significant glucocorticoid activity

## C[C@]12C[C@H](O)[C@H]3[C@@H](CCC4=CC(=O)CC[C@@]43C)[C@@H]1CC[C@@H]2C(=O)CO [corticosterone]
Glucocorticoid receptor [2]; as in example 7 (24 h)
  response of MH 3924 cells compared with response of CC1 cells: distinctly more sensitive
Glucocorticoid receptor [1]
  glucocorticoid activity (luciferase induction): very active
